Laboratory results from patent US8604053B2, “TRPV1 antagonists” (AbbVie Inc., priority 2008, dated 2013).

Tests used:
[1] = Rat telemetry protocol, core body temperature; format: in vivo; details: core body temperature of rats one hour post dosing, 100 μmol/kg p.o., relative to vehicle
Method in brief: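 Male Sprague Dawley rats (225–250 g) with intraperitoneal telemetry transmitters, 2-week recovery. Single oral 100 μmol/kg dose in 10% EtOH/20% Tween-80/70% PEG-400; core body temperature recorded every 15 min over 24 h.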

[2] = biological target: T1, human TRPV1 receptor (hTRPV1) (Homo sapiens, UniProt Q8NER1); test: Capsaicin activation assay (Ca2+ influx, FLIPR); format: cell-based; details: hTRPV1 in 1321N1 cells, 0.05 μM capsaicin
T1 construct: expressed in transfected cells
T1 sequence (Q8NER1 whole entry): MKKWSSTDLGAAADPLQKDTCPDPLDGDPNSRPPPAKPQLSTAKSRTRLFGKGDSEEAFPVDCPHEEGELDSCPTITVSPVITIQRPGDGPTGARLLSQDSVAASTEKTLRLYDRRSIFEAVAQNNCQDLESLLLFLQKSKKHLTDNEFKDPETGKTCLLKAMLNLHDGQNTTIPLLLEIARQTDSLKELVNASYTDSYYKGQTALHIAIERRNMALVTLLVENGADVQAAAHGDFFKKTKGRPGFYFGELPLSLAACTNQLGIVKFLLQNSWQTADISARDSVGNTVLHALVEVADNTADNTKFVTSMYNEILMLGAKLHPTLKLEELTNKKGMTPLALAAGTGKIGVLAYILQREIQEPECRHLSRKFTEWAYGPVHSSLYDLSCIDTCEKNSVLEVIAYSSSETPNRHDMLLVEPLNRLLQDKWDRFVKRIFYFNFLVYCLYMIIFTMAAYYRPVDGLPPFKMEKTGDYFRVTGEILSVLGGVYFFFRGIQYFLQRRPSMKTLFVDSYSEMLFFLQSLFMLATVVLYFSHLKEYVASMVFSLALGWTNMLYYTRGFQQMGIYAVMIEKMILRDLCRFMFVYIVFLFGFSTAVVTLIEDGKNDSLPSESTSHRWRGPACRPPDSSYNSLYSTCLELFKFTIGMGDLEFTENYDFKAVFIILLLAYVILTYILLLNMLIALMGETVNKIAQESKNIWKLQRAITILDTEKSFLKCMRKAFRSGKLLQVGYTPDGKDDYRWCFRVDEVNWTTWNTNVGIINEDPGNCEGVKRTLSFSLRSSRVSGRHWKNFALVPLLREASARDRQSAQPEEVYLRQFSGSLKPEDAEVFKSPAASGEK
Method in brief: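 1321N1 astrocytoma cells stably expressing recombinant hTRPV1, loaded with Fluo-4 AM (2 μM, 1-2 h, 23 °C); compounds added 3 min before capsaicin (0.05 μM final), 11-point half-log range. Peak FLIPR fluorescence over baseline as % of capsaicin control; IC50 from four-parameter Hill fit.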

Molecule	Δ Temp (° C.) [1] [°C]	IC50 [2] [µM]
Cc1cc2c(NC(=O)N[C@@H]3CC(CF)(CF)Oc4ccccc43)cccc2cn1 [Example 101, N-[(4R)-2,2-bis(fluoromethyl)-3,4-dihydro-2H-chromen-4-yl]-N′-(3-methylisoquinolin-5-yl)urea]	0.0	0.091
Cc1cc2c(NC(=O)N[C@@H]3CC(CF)(CF)Oc4cc(Br)ccc43)cccc2cn1 [Example 102, N-[(4R)-7-bromo-2,2-bis(fluoromethyl)-3,4-dihydro-2H-chromen-4-yl]-N′-(3-methylisoquinolin-5-yl)urea]	−0.7	0.014
Cc1cc2c(NC(=O)N[C@@H]3CC(C)(C)Oc4c3ccc(F)c4Cl)cccc2cn1 [Example 110, N-[(4R)-8-chloro-7-fluoro-2,2-dimethyl-3,4-dihydro-2H-chromen-4-yl]-N′-(3-methylisoquinolin-5-yl)urea]	−1.1	0.023
Cc1cc2c(NC(=O)N[C@@H]3CC(C)(C)Oc4c3ccc(F)c4F)cccc2cn1 [Example 113, N-[(4R)-7,8-difluoro-2,2-dimethyl-3,4-dihydro-2H-chromen-4-yl]-N′-(3-methylisoquinolin-5-yl)urea]	0.0	0.012
Cc1cc2c(NC(=O)N[C@@H]3CC(C)(C)Oc4cc(C(F)(F)F)ccc43)cccc2cn1 [Example 118, N-[(4R)-2,2-dimethyl-7-(trifluoromethyl)-3,4-dihydro-2H-chromen-4-yl]-N′-(3-methylisoquinolin-5-yl)urea]	0.0	0.019
Cc1cc2c(NC(=O)N[C@@H]3CC(C)(C)Oc4c(F)cccc43)cccc2cn1 [Example 119, N-[(4R)-8-fluoro-2,2-dimethyl-3,4-dihydro-2H-chromen-4-yl]-N′-(3-methylisoquinolin-5-yl)urea]	0.0	0.028
Cc1cc2c(NC(=O)N[C@@H]3CC(CF)(CF)Oc4c(F)cc(F)cc43)cccc2cn1 [Example 120, N-[(4R)-6,8-difluoro-2,2-bis(fluoromethyl)-3,4-dihydro-2H-chromen-4-yl]-N′-(3-methylisoquinolin-5-yl)urea]	−0.5	0.043
Cc1cc2c(NC(=O)N[C@@H]3CC(C)(C)Oc4cc(F)ccc43)c(F)ccc2cn1 [Example 123, N-[(4R)-7-fluoro-2,2-dimethyl-3,4-dihydro-2H-chromen-4-yl]-N′-(6-fluoro-3-methylisoquinolin-5-yl)urea]	0.0	0.027
Cc1cc2c(NC(=O)N[C@@H]3C[C@](C)(CF)Oc4c(F)cccc43)cccc2cn1 [Example 126, N-[(2R,4R)-8-fluoro-2-(fluoromethyl)-2-methyl-3,4-dihydro-2H-chromen-4-yl]-N′-(3-methylisoquinolin-5-yl)urea]	0.0	0.2
Cc1cc2c(NC(=O)N[C@@H]3C[C@@](C)(CF)Oc4c(F)cccc43)cccc2cn1 [Example 128, N-[(2S,4R)-8-fluoro-2-(fluoromethyl)-2-methyl-3,4-dihydro-2H-chromen-4-yl]-N′-(3-methylisoquinolin-5-yl)urea]	−0.1	0.3
N-[(4R)-2,2-diethyl-6-fluoro-3,4-dihydro-2H-chromen-4-yl]-N-(3-methylisoquinolin-5-yl)urea [Example 56]	0.2	0.015
N-[(4R)-2,2-diethyl-8-fluoro-3,4-dihydro-2H-chromen-4-yl]-N-(3-methylisoquinolin-5-yl)urea [Example 62]	−0.5	0.004
N-[(4R)-6,8-difluoro-2,2-dimethyl-3,4-dihydro-2H-chromen-4-yl]-N-(3-methylisoquinolin-5-yl)urea [Example 98]	0.0	0.017
N-[(4R)-6,8-difluoro-2,2-dimethyl-3,4-dihydro-2H-chromen-4-yl]-N′-isoquinolin-5-ylurea [Example 17]	−1.5	0.032
N-[(4R)-7-fluoro-2,2,8-trimethyl-3,4-dihydro-2H-chromen-4-yl]-N-(3-methylisoquinolin-5-yl)urea [Example 111]	−1.3	0.024
